According to patent US7309484B2, “Compositions and methods for screening antibacterial compounds” (priority 2003, dated 2007):
Where two headings read alike, the source gives them in different places. Bridge positions count the residues as written; N and C are the ends. Square brackets hold non-standard residues; d marks the D form. Peptide text beside a SMILES is read from it. * marks the point of attachment. Ileψ(thiazoline)Cys = CC[C@H](C)[C@H](N)C1=N[C@H](C(=O)*)CS1; dOrn = NCCC[C@@H](N)C(=O)O

Key:
[1] = tested on: liaI expression (liaI::pMUTIN lacZ fusion, strain BFS2470; also liaH::pMUTIN, BFS2469); assay: Disk-diffusion assay, blue ring on X-Gal plates; format: cell-based, Bacillus subtilis
Description: The pMUTIN-insertion results in a disruption of the targeted gene and generates a transcriptional fusion to lacZ thereby allowing detection of both antibiotic sensitivity (as defined by the zone of inhibition around the disk) and inducibility (by the formation of a blue ring at the edge of the zone of inhibition) (Cao et al., 2002, Mol Microbiol. 45: 1267-1276, the entire teaching of which is incorporated herein). The disruption of liaI and liaH had no effect on the sensitivity of the mutants to any of the antibiotics tested. […] Equivalent levels of induction were also observed with the PliaI-74-cat-lacZ fragment (in HB0950), albeit with lower fold-changes (See, Table 2). While the mode of action is different for these antibiotics, all four interfere with the lipid II cycle, essential for the biosynthesis of cell envelope polymers (Lazar et al., 2002, Curr. Opin. Chem. Biol. 6: 786-93).
PliaI induction assays: Screening for liaI induction was done by disk diffusion assay essentially as described (Cai, S. J., and M. Inouye, 2002, J Biol Chem 277:24155-61). B. subtilis strains were inoculated from a fresh overnight LB agar plate and grown to mid-log phase (OD600 ˜0.45) at 37 YC with shaking. 20 μl of the culture was mixed with 3 ml of 0.7% soft LB agar (containing 40 μg of X-Gal per plate) and poured onto the bottom agar. After cooling and drying of the plates (20 min at 37 YC), filter paper disks (6 mm diameter) carrying 5 μl of stock solution (antibiotics normally 100 mg/ml; lysozyme 10 mg/ml; tunicamycin, surfactants, uncouplers 5 mg/ml each; inhibitors of protein biosynthesis as given in the media and growth conditions section) were placed on top of the agar. The plates were incubated at 37 YC overnight. After 12-24 h incubation, the plates were scored for the appearance of a blue ring at or near the edge of the zone of growth inhibition produced by the diffusion of the antibiotics from the filter disk.

[2] = tested on: B. subtilis liaH mutant HB0920 gene expression; assay: microbe, parasite or virus in culture; format: cell-based, Bacillus subtilis; details: for fold induction at 100 µg/mL: Bacillus subtilis; for Fold induction 15 min / Fold induction 5 min: 100 μg/mL, listed as zinc-bacitracin
Description: The bacitracin stimulon of B. subtilis was examined using global transcriptome analysis. […] Under most conditions tested, about 60-70 genes were induced greater than 5-fold. […] The scatter-plot represents the data sets obtained for strain HB0920 (yvqH was still detected as bacitracin-inducible due to the presence of a remaining region near the 5′-end of the gene). […] Members of the σ^M (white open squares) and σ^B (small black triangles) regulon are highlighted. All other gene signals are represented as small gray diamonds. Note that for the generation of this graphical display the data sets could not be filtered to remove low quality and non-reproducible signals, thus some of the background signals (small gray diamonds) that appear to represent highly regulated genes are not significant.
The liaH-deletion mutant was included in the analysis because the well-characterized LiaH-homologue in E. coli, PspA, functions as a repressor of transcription (Adams et al., 2003, J Bacteriol. 185: 1174-1180; Bordes et al., 2003, Proc Natl Acad Sci USA. 100: 2278-2283, the entire teachings of which are incorporated herein by reference). […] Similar results were obtained with CU1065.
For microarray analysis 100 mL of LB medium were inoculated from a fresh overnight LB-plate and incubated at 37° C. with aeration until the culture reached an O.D.600≈0.45, when the culture was split: 30 mL served as an un-induced control. To the remaining culture bacitracin was added to a final concentration of 100 μg/mL and 30 mL samples were taken 5 and 15 min after addition. The cells were harvested by centrifugation at room temperature and cell pellets were shock frozen and stored at −70° C. for at least 30 min. […] After extraction the RNA was purified using the RNA clean-up protocol of the RNeasy kit (Qiagen) with on-column DNase treatment in order to remove abundant small RNA molecules (tRNAs and 5S rRNA) and residual genomic DNA.
Each slide contains 9220 features corresponding to duplicate copies of each open reading frame, additional PCR products for some ORFs, rRNA genes, and other controls. RNA preparations were used to synthesize Cy3- and Cy5-labeled cDNA and hybridization was performed as described (Ye et al., 2000, J Bacteriol. 182: 4458-4465; Ye et al., 2001, J Microbiol Methods. 47: 257-272, the entire teaching of which are incorporated herein by reference). All comparisons were performed twice (once each with Cy3 and Cy5) to control for possible differences in labeling efficiency between fluorophores. Fluorescent signal intensity data was quantified using ArrayVision software (Molecular Dynamics) and normalized to the total detectable mRNA. Mean fluorescence intensity is set to 1.0 with a value of 0.1 corresponding to background. Each expression ratio is represented by at least four separate measurements (duplicate spots on each of two slides).

## CC[C@H](C)[C@H](N)C1=N[C@H](C(=O)N[C@@H](CC(C)C)C(=O)N[C@H](CCC(=O)O)C(=O)N[C@H](C(=O)N[C@H]2CCCCNC(=O)[C@H](CC(N)=O)NC(=O)[C@@H](CC(=O)O)NC(=O)[C@H](Cc3cnc[nH]3)NC(=O)[C@@H](Cc3ccccc3)NC(=O)[C@H]([C@@H](C)CC)NC(=O)[C@@H](CCCN)NC2=O)[C@@H](C)CC)CS1 [Bacitracin] ({Ileψ(thiazoline)Cys}-L[dE]IK[dOrn]I[dF]H[dD]N; lactam 4-C)
[1]; qualitative screen of β-Galactosidase activity, blue ring at edge of zone of inhibition, LB plates with X-Gal, strain BFS2470
  disk-diffusion assay: +
[1]; strains BFS2469 and BFS2470
  induction of liaI / liaH expression, in words: induced
[2]; 5 min, read-out: Fold induction 5 min, gene bcrC, 100 μg/mL, 5 min
  fold induction at 100 µg/mL: ~10
[2]; 5 min, read-out: Fold induction 5 min, gene cadA (yvgW), 100 μg/mL, 5 min
  fold induction at 100 µg/mL: 58
[2]; 5 min, read-out: Fold induction 5 min, gene cotY, 100 μg/mL, 5 min
  fold induction at 100 µg/mL: 9.4
[2]; 5 min, read-out: Fold induction 5 min, gene czcD, 100 μg/mL, 5 min
  fold induction at 100 µg/mL: 61
[2]; 5 min, read-out: Fold induction 5 min, gene czcO (trkA), 100 μg/mL, 5 min
  fold induction at 100 µg/mL: 33
[2]; 5 min, read-out: Fold induction 5 min, gene ydhK, 100 μg/mL, 5 min
  fold induction at 100 µg/mL: 12
[2]; 5 min, read-out: Fold induction 5 min, gene yetG, 100 μg/mL, 5 min
  fold induction at 100 µg/mL: 1.4
[2]; 5 min, read-out: Fold induction 5 min, gene ykvS, 100 μg/mL, 5 min
  fold induction at 100 µg/mL: 5.9
[2]; 5 min, read-out: Fold induction 5 min, gene ytzB, 100 μg/mL, 5 min
  fold induction at 100 µg/mL: 2.8
[2]; 5 min, read-out: Fold induction 5 min, gene yybR, 100 μg/mL, 5 min
  fold induction at 100 µg/mL: 5.4
[2]; 5 min, read-out: Fold induction 5 min, gene(s) bacAB (ytsCD), 100 μg/mL, 5 min
  fold induction at 100 µg/mL: 280
[2]; 5 min, read-out: Fold induction 5 min, gene(s) gerAA/AB, 100 μg/mL, 5 min
  fold induction at 100 µg/mL: 7.1
[2]; 5 min, read-out: Fold induction 5 min, gene(s) ycgRQ, 100 μg/mL, 5 min
  fold induction at 100 µg/mL: 6.7
[2]; 5 min, read-out: Fold induction 5 min, gene(s) ygaCD, 100 μg/mL, 5 min
  fold induction at 100 µg/mL: 2
[2]; 5 min, read-out: Fold induction 5 min, gene(s) yhcYZ-yhdA, 100 μg/mL, 5 min
  fold induction at 100 µg/mL: 20
[2]; 5 min, read-out: Fold induction 5 min, gene(s) yjbIH, 100 μg/mL, 5 min
  fold induction at 100 µg/mL: 5.2
[2]; 5 min, read-out: Fold induction 5 min, gene(s) ykuNOP, 100 μg/mL, 5 min
  fold induction at 100 µg/mL: 1.4
[2]; 5 min, read-out: Fold induction 5 min, gene(s) ytrBCDEF, 100 μg/mL, 5 min
  fold induction at 100 µg/mL: 9.1
[2]; 5 min, read-out: Fold induction 5 min, gene(s) yvcRS, 100 μg/mL, 5 min
  fold induction at 100 µg/mL: 12
[2]; 5 min, read-out: Fold induction 5 min, gene(s) yvqGFEC, 100 μg/mL, 5 min
  fold induction at 100 µg/mL: 6
[2]; 5 min, read-out: Fold induction 5 min, gene(s) yvqIH, 100 μg/mL, 5 min
  fold induction at 100 µg/mL: 772
[2]; 0.25 h, read-out: Fold induction 15 min, gene bcrC, 100 μg/mL, 15 min
  fold induction at 100 µg/mL: ~10
[2]; 0.25 h, read-out: Fold induction 15 min, gene cadA (yvgW), 100 μg/mL, 15 min
  fold induction at 100 µg/mL: 9.8
[2]; 0.25 h, read-out: Fold induction 15 min, gene cotY, 100 μg/mL, 15 min
  fold induction at 100 µg/mL: 5.9
[2]; 0.25 h, read-out: Fold induction 15 min, gene czcD, 100 μg/mL, 15 min
  fold induction at 100 µg/mL: 3.8
[2]; 0.25 h, read-out: Fold induction 15 min, gene czcO (trkA), 100 μg/mL, 15 min
  fold induction at 100 µg/mL: 2.8
[2]; 0.25 h, read-out: Fold induction 15 min, gene ydhK, 100 μg/mL, 15 min
  fold induction at 100 µg/mL: 4.4
[2]; 0.25 h, read-out: Fold induction 15 min, gene yetG, 100 μg/mL, 15 min
  fold induction at 100 µg/mL: 10
[2]; 0.25 h, read-out: Fold induction 15 min, gene ykvS, 100 μg/mL, 15 min
  fold induction at 100 µg/mL: 10
[2]; 0.25 h, read-out: Fold induction 15 min, gene ytzB, 100 μg/mL, 15 min
  fold induction at 100 µg/mL: 11
[2]; 0.25 h, read-out: Fold induction 15 min, gene yybR, 100 μg/mL, 15 min
  fold induction at 100 µg/mL: 3.7
[2]; 0.25 h, read-out: Fold induction 15 min, gene(s) bacAB (ytsCD), 100 μg/mL, 15 min
  fold induction at 100 µg/mL: 360
[2]; 0.25 h, read-out: Fold induction 15 min, gene(s) gerAA/AB, 100 μg/mL, 15 min
  fold induction at 100 µg/mL: 4.2
[2]; 0.25 h, read-out: Fold induction 15 min, gene(s) ycgRQ, 100 μg/mL, 15 min
  fold induction at 100 µg/mL: 7.9
[2]; 0.25 h, read-out: Fold induction 15 min, gene(s) ygaCD, 100 μg/mL, 15 min
  fold induction at 100 µg/mL: 12
[2]; 0.25 h, read-out: Fold induction 15 min, gene(s) yhcYZ-yhdA, 100 μg/mL, 15 min
  fold induction at 100 µg/mL: 14
[2]; 0.25 h, read-out: Fold induction 15 min, gene(s) yjbIH, 100 μg/mL, 15 min
  fold induction at 100 µg/mL: 7.1
[2]; 0.25 h, read-out: Fold induction 15 min, gene(s) ykuNOP, 100 μg/mL, 15 min
  fold induction at 100 µg/mL: 12
[2]; 0.25 h, read-out: Fold induction 15 min, gene(s) ytrBCDEF, 100 μg/mL, 15 min
  fold induction at 100 µg/mL: 9.7
[2]; 0.25 h, read-out: Fold induction 15 min, gene(s) yvcRS, 100 μg/mL, 15 min
  fold induction at 100 µg/mL: 24
[2]; 0.25 h, read-out: Fold induction 15 min, gene(s) yvqGFEC, 100 μg/mL, 15 min
  fold induction at 100 µg/mL: 7
[2]; 0.25 h, read-out: Fold induction 15 min, gene(s) yvqIH, 100 μg/mL, 15 min
  fold induction at 100 µg/mL: 1060
[2]; gene bcrC
  Fold induction 15 min: 9.5 fold
[2]; gene(s) bacAB (ytsCD), 5 min
  Fold induction 5 min: 282 fold
[2]; gene(s) bacAB (ytsCD)
  Fold induction 15 min: 365 fold
[2]; gene(s) yhcYZ-yhdA, 5 min
  Fold induction 5 min: 21 fold
[2]; gene(s) yvcRS
  Fold induction 15 min: 25 fold
[2]; gene(s) yvqGFEC, 5 min
  Fold induction 5 min: 6.1 fold
